{"source": "patent US8530454B2", "about": "“Use of 2,5-dihydroxybenzene compounds and derivatives for the treatment of psoriasis” (Amderma Pharmaceuticals, LLC, priority 2006, dated 2013)", "key": {"[1]": {"molecular_target": "fibroblast growth factor-1 (FGF-1) (Homo sapiens, UniProt P05230)", "sequence (P05230 whole entry, species assumed)": "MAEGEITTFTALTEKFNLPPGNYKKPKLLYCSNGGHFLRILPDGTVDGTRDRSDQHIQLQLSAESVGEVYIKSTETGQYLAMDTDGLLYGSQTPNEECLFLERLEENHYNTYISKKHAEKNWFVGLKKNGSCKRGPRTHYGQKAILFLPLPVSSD", "experiment": "Crystal diffraction of co-crystal complexes with FGF-1", "type": "binding", "settings": "electron density contoured at 1σ; for acetoxyl groups retained when bound to FGF-1: co-crystal; for binding site on FGF-1 in the co-crystal: reference lysine 132", "method": "Based on the crystal diffraction of the FGF-1:2-acetoxy-5-hydroxybenzene sulfonic acid, FGF-1:5-acetoxy-2-hydroxybenzene sulfonic acid and FGF-1:2,5-diacetoxybenzene sulfonic acid complexes, the structures of the complexes were calculated and represented. FIGS. 13, 14 and 15, which show the surface of the dyed protein according to its electrostatic potential (light grey, negative charge; dark grey, positive charge; white, regions with no charge), show the manner in which 2-acetoxy-5-hydroxybenzene sulfonic acid, 5-acetoxy-2-hydroxybenzene sulfonic acid and 2,5-diacetoxybenzene sulfonic acid interact, respectively, with FGF-1."}, "rat glioma C6 cells": {"test_system": "rat glioma C6 cells", "experiment": "Rat glioma C6 cell proliferation, crystal violet staining", "type": "cell-based", "settings": "48 h; for C6 cell proliferation (percentage of control absorbance at 595 nm): 500 μM, p<0.001 vs control (FIG. 12)", "method": "The cell line used was rat glioma C6 cells. The cells were cultured as previously described (Cuevas P et al. Neurol Res, 2005). The cells were cultured as adherent cells in Dulbecco's modified Eagle's medium, supplemented with 7.5% (v/v) of fetal bovine serum, 10 μg/ml of streptomycin and 10 units/ml of penicillin. The tumor cells were seeded in 24-well plates at a density of 10,000 cells/well, and were incubated at 37° C. in a humidified chamber with 5% CO2. Once adhered, the cells were treated or not (controls) with 2,5-dihydroxybenzoate at 100, 200, 500 or 1000 μM and they were allowed to proliferate for 48 h. After this time the glioma cell proliferation was evaluated by means of staining the fixed cells with crystal violet. The number of cells is proportional to the amount of retained dye, which was spectrophotometrically determined by measuring the absorbance at 595 nm once the dye was extracted from the cells.\nThe cell line used was the C6 cell line and the experiment was carried out as described in Example 2. Once adhered, the cells were treated or not (controls) with increasing concentrations of 2,5-DHC (10, 25, 50 and 100 μM) and they were allowed to proliferate for 48 h. After this time the glioma cell proliferation was evaluated by means of staining the fixed cells with crystal violet. The number of cells is proportional to the amount of retained dye, which was determined spectrophotometrically by measuring absorbance at 595 nm once the dye was extracted from the cells.\nThe cell line used was the C6 cell line and the experiment was carried out as described in examples 2 and 3. Once adhered, the cells were treated or not (controls) with (5A-2HBS) (500 μM) or (2A-5HBS) (500 μM) and they were allowed to proliferate for 48 h. After this time the glioma cell proliferation was evaluated by means of staining the fixed cells with crystal violet. The number of cells is proportional to the amount of retained dye, which was determined spectrophotometrically by measuring the absorbance at 595 nm once the dye was extracted from the cells."}, "[2]": {"test_system": "mitogenesis induced by fibroblast growth factor-1 (FGF-1) in Balb/c 3T3 fibroblasts", "experiment": "Inhibition of FGF-1-induced mitogenesis in quiescent Balb/c 3T3 fibroblasts", "type": "cell-based", "settings": "quiescent Balb/c 3T3 cultures; potassium salts, calcium salt for 2-acetoxy-5-hydroxybenzene sulfonate", "method": "The evaluated compounds were used in the form of potassium salt, except in the first case which used calcium salt. The experiments were carried out as described in Fernández-Tornero C et al. J Biol Chem, 2003."}, "[3]": {"test_system": "bFGF-induced fibrosis in rat adipose tissue", "experiment": "bFGF-induced fibrosis around subcutaneously implanted gelatin sponges", "type": "in vivo, Sprague-Dawley rats", "settings": "100 μM in sponge with bFGF and heparin, 7 days, vs bFGF alone", "method": "Sterile gelatin sponges (1 mm^3; Curaspon Dental, Clinimed Holding, Zwanenburg, The Netherlands) were subcutaneously implanted in the dorsal region of the neck in Sprague-Dawley rats after the induction of intraperitoneal anesthesia. The animals were split into two groups: group A, the sponges were moistened with 200 μl of saline solution which contained 25 μg/ml of heparin and 10 μg/ml of basic FGF (bFGF); group B, the sponges were moistened in the same solution as in group A, but which solution farther contained 2,5-dihydroxybenzoate (100 μM). After 7 days, the sponges and the surrounding subcutaneous fat were removed and histologically analyzed."}, "[4]": {"test_system": "human prostate cancer PC-3 cells", "experiment": "Human tumor cell proliferation (XTT), PC-3", "type": "cell-based", "settings": "1-200 μM, 96 h", "method": "(§1) The cell lines used were the human prostate cancer PC-3 cells and human lung cancer A549 cells. 2000 cells were seeded per well in 96-well plates and they were allowed to adhere overnight. Then the cells were treated or not (controls) with potassium 2,5-diacetoxybenzene sulfonate (DABS) (1-200 μM) and they were allowed to proliferate for 96 h. After this time, the PC-3 and A549 cell proliferation was evaluated by determining the final number of cells by means of the viability method of yellow tetrazolium salt (XTT). The data were expressed as a percentage of the control (without treatment)."}, "[5]": {"test_system": "human lung cancer A549 cells", "experiment": "Human tumor cell proliferation (XTT), A549", "type": "cell-based", "settings": "1-200 μM, 96 h", "method": "as §1"}, "[6]": {"test_system": "subcutaneous tumors from human prostate cancer PC-3 cells", "experiment": "Subcutaneous PC-3 prostate cancer cell implantation model in athymic mice", "type": "in vivo, athymic mice (Nu/Nu)", "settings": "100 mg/kg daily i.p. for 15 days, vs carrier", "method": "5×10^6 human prostate cancer PC-3 cells were subcutaneously injected in male athymic mice (Nu/Nu) of 6-8 weeks of age and weighing 20-26 g. Ten days after the implantation of the tumor cells, the mice were randomly split into two groups: one of them received a daily injection of potassium 2,5-diacetoxybenzene sulfonate (DABS) by intraperitoneal route at a dose of 100 mg/kg dissolved in saline (0.9% NaCl) whereas the other group received a daily injection of carrier (saline). The treatments were administered for 15 days. The volumes of the tumors induced by the implantation of PC-3 cells were measured through the skin on alternating days using a Vernier caliper. The volume was calculated using the formula V=(D×2d)/2, where D is the larger diameter in mm, d is the smaller diameter in mm and V is the volume in mm3. At the end of treatment, the mice were sacrificed and the tumors were weighed."}, "[7]": {"test_system": "tumor cells of subcutaneous gliomas", "experiment": "Apoptosis in sections of established subcutaneous gliomas (hematoxylin and eosin)", "type": "in vivo, rat", "settings": "100 mg/kg/day i.p. for 10 days, vs carrier (very scarce)", "from_the_text": "Tumor cells elude the programmed cell death process or apoptosis that normal cells experience. Apoptosis induction in tumor cells is one way to confront the development of a tumor. To evaluate the effect of potassium 2,5-dihydroxybenzene sulfonate […] on tumor cell apoptosis, 6 μm thick sections of the subcutaneous gliomas described in example 4 were made. The sections were stained with hematoxylin and eosin and observed at a magnification of 313 times using immersion oil. In these conditions, cell apoptosis is shown by the existence of apoptotic bodies appearing as strongly chromogenic granules in the cell nucleus which is frequently fragmented."}, "[8]": {"test_system": "subcutaneous gliomas from implanted rat glioma C6 cells", "experiment": "Progression of established subcutaneous C6 gliomas in rats", "type": "in vivo", "settings": "100 mg/kg/day i.p. for 10 days", "method": "Rat C6 glioma cells were cultured as previously described (Cuevas P et al. Neurol Res, 2005). The C6 cells cultured to confluence in 75 cm^2 flasks were removed and implanted under the abdominal skin in anesthetized rats. The existence of a tumor in the implantation area was observed five days after the implantation of the tumor cells. Only the rats in which the existence of a tumor was observed were randomly assigned to be treated with daily intraperitoneal injections of 2,5-dihydroxybenzene sulfonate (DHBS; 100 mg/kg/day), 2,5-diacetoxybenzene sulfonate (DABS; 100 mg/kg/day) or the carrier (0.9% NaCl). After 10 days of treatment, the subcutaneous gliomas were removed and their volume was calculated according to the formula V=4/3π·(L/2)·(A/2)^2 (in mm^3) where L is the larger diameter and A is the smaller diameter, both expressed in mm."}}, "data": [{"smiles": "CC(=O)Oc1ccc(O)c(S(=O)(=O)[O-])c1.[K+]", "note": "[5A-2HBS, potassium 5-acetoxy-2-hydroxybenzene sulfonate]", "values": [{"measurement": "acetoxyl groups retained when bound to FGF-1", "setting": "[1]", "value": "conserve the acetoxyl groups"}, {"measurement": "binding site on FGF-1 in the co-crystal", "setting": "[1]", "value": "occupy a site that is very close to the one that has been described occupied by 2,5-dihydroxybenzene sulfonic acid"}, {"measurement": "C6 cell proliferation (percentage of control absorbance at 595 nm)", "setting": "rat glioma C6 cells", "value": "caused the inhibition of rat glioma cell proliferation"}, {"measurement": "inhibition of mitogenesis induced by FGF-1", "setting": "[2]", "value": "inhibition of mitogenesis induced by FGF-1"}]}, {"smiles": "CC(=O)Oc1ccc(O)cc1S(=O)(=O)[O-].[K+]", "note": "[2A-5HBS, potassium 2-acetoxy-5-hydroxybenzene sulfonate]", "values": [{"measurement": "acetoxyl groups retained when bound to FGF-1", "setting": "[1]", "value": "conserve the acetoxyl groups"}, {"measurement": "binding site on FGF-1 in the co-crystal", "setting": "[1]", "value": "occupy a site that is very close to the one that has been described occupied by 2,5-dihydroxybenzene sulfonic acid"}, {"measurement": "C6 cell proliferation (percentage of control absorbance at 595 nm)", "setting": "rat glioma C6 cells", "value": "caused the inhibition of rat glioma cell proliferation"}, {"measurement": "inhibition of mitogenesis induced by FGF-1", "setting": "[2]", "value": "inhibition of mitogenesis induced by FGF-1"}]}, {"smiles": "O=C([O-])c1cc(O)ccc1O.[K+]", "note": "[2,5-dihydroxybenzoate, potassium 2,5-dihydroxybenzoate]", "values": [{"measurement": "C6 cell proliferation (absorbance at 595 nm)", "setting": "rat glioma C6 cells; 100, 200, 500 and 1000 μM", "value": "inhibited rat glioma C6 cell proliferation in a concentration-dependent manner"}, {"measurement": "statistical significance of inhibition of C6 cell proliferation vs control", "setting": "rat glioma C6 cells; 500 and 1000 μM, p<0.001 (FIG. 2)", "value": "statistically significant"}, {"measurement": "bFGF-induced fibrosis (fibroblasts in septa of connective tissue of adipose tissue)", "setting": "[3]", "value": "reduces bFGF-induced fibrosis"}]}, {"smiles": "CC(=O)Oc1ccc(OC(C)=O)c(S(=O)(=O)[O-])c1.[K+]", "note": "[DABS, potassium 2,5-diacetoxybenzene sulfonate]", "values": [{"measurement": "PC-3 cell proliferation (percentage of control)", "setting": "[4]", "value": "significant inhibition"}, {"measurement": "acetoxyl groups retained when bound to FGF-1", "setting": "[1]", "value": "conserve the acetoxyl groups"}, {"measurement": "binding site on FGF-1 in the co-crystal", "setting": "[1]", "value": "occupy a site that is very close to the one that has been described occupied by 2,5-dihydroxybenzene sulfonic acid"}, {"measurement": "A549 cell proliferation (percentage of control)", "setting": "[5]", "value": "significant inhibition"}, {"measurement": "inhibition of mitogenesis induced by FGF-1", "setting": "[2]", "value": "inhibition of mitogenesis induced by FGF-1"}, {"measurement": "tumor growth (tumor volume through the skin)", "setting": "[6]; start 10 days after implantation", "value": "significantly reduced"}, {"measurement": "weight of the extracted tumor when treatment ended", "setting": "[6]; p<0.05", "value": "significant reduction of the weight"}, {"measurement": "tumor cells in apoptosis in glioma sections", "setting": "[7]", "value": "a large number of tumor cells in apoptosis"}, {"measurement": "rats tumor-free when treatment ended", "setting": "[8]; all rats had established tumors before treatment", "value": 4, "unit": "rats"}, {"measurement": "probability of being tumor-free (χ2 test), DABS group vs DHBS group", "setting": "[8]; p<0.05", "value": "greater probability of being tumor-free"}]}, {"smiles": "O=C(O)C=Cc1cc(O)ccc1O", "note": "[2,5-DHC, 3-(2,5-dihydroxyphenyl)-2-propenoic acid]", "values": [{"measurement": "C6 cell proliferation relative to control", "setting": "rat glioma C6 cells; 50 μM", "value": "less than half"}, {"measurement": "C6 cell proliferation relative to control", "setting": "rat glioma C6 cells; 100 μM", "value": "one tenth"}]}, {"smiles": "O=S(=O)([O-])c1cc(O)ccc1O.[K+]", "note": "[DHBS, potassium 2,5-dihydroxybenzene sulfonate, reference compound]", "values": [{"measurement": "inhibition of mitogenesis induced by FGF-1", "setting": "[2]", "value": "inhibition of the mitogenesis"}, {"measurement": "average size (volume) of subcutaneous gliomas", "setting": "[8]; treatment from day 5 after implantation, vs carrier", "value": "less than that of the rats treated with carrier"}]}]}
